In patent publication US12030876B2, “Aryl hydrocarbon receptor (AHR) agonists and uses thereof” (Ikena Oncology, Inc., priority 2019, dated 2024):

What was measured:
AHR [1] = molecular target: T1, AHR (Homo sapiens, UniProt P35869); test: DRE-Luciferase Reporter Assay, HepG2 (agonist); type: cell-based; details: HepG2, Table 2; read-out: DRE-Luc HepG2 - Agonist: Average EC50
T1 construct: endogenous in cells; host or cells: HepG2 (human), transfected with a DRE-luciferase reporter only
T1 sequence (P35869 11-848): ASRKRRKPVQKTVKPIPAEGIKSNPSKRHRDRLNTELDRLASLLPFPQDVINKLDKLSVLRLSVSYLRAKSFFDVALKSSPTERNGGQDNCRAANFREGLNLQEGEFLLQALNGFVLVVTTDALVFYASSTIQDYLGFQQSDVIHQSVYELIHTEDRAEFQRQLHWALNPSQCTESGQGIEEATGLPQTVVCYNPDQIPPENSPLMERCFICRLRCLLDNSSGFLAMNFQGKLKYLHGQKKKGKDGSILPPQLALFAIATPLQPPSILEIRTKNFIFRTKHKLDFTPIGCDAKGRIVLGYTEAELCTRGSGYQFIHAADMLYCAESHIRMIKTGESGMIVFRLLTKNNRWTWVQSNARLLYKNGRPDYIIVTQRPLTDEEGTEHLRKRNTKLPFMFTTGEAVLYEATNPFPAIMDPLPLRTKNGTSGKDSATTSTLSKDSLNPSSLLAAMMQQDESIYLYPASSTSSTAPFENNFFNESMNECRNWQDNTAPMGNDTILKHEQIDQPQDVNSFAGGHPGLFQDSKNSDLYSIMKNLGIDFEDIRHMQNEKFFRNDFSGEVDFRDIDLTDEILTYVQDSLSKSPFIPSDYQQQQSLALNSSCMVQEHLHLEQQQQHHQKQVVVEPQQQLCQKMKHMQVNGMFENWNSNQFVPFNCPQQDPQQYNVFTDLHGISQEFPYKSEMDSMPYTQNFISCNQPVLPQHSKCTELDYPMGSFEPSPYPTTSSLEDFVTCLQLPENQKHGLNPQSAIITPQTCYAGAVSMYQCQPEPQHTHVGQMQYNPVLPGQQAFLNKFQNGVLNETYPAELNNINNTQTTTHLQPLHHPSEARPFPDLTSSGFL
Experimental: DRE-Luciferase Reporter Assay
AHR binds to Dioxin Responsive Elements (DRE) upstream of genes that it activates. One measure of AHR activity is activation of a reporter gene, such as luciferase, downstream of one or multiple DRE elements. Luciferase activity reflects activation and inhibition of AHR in the cells expressing this reporter.
Murine Hepa1-6 or Hepa-1c1c7 or other murine cell line with a DRE-luciferase reporter either stably or transiently transfected are plated in media in plates (96-well, 384-well or other plates) and incubated overnight at 37 C in a CO2 incubator. Likewise, human HepG2 or other human cell line with a DRE-luciferase reporter either stably or transiently transfected are plated in media in plates (96-well, 384-well or other plates) and incubated overnight at 37 C in a CO2 incubator.
(§1) The next day, an AHR agonist compound is added. Cells are incubated for 6, 16 or 24 hours or another time point and then lysed for determination of luciferase activity as a read-out of the AHR activation. Luciferase can be measured with a commercial kit such as the Promega Luciferase kit or any kit or reagents that provide the luciferin substrate for measuring luciferase activity. The level of luciferase with only activating ligand (e.g. such as TCDD, kynurenine, ITE (2-(1H-indole-3-ylcarbonyl)-4-thiazolecarboxylic methyl ester), VAF347, BNF (beta-naphthoflavone), ICZ (6-formylindolo(3,2-b) carbazole or other AHR ligands) added is the maximum signal while the luciferase with no ligand is the minimum signal. EC50s can be determined as the concentration which activates half of the maximum luciferase activity.

AHR [2] = molecular target: T2, AHR (Mus musculus, UniProt P30561); test: P450 CYP1A1 Luciferase Assay, Hepa1.6 (agonist); type: cell-based, murine; details: Hepa1.6, Table 2
T2 sequence (P30561 1-848 F348L/P471L): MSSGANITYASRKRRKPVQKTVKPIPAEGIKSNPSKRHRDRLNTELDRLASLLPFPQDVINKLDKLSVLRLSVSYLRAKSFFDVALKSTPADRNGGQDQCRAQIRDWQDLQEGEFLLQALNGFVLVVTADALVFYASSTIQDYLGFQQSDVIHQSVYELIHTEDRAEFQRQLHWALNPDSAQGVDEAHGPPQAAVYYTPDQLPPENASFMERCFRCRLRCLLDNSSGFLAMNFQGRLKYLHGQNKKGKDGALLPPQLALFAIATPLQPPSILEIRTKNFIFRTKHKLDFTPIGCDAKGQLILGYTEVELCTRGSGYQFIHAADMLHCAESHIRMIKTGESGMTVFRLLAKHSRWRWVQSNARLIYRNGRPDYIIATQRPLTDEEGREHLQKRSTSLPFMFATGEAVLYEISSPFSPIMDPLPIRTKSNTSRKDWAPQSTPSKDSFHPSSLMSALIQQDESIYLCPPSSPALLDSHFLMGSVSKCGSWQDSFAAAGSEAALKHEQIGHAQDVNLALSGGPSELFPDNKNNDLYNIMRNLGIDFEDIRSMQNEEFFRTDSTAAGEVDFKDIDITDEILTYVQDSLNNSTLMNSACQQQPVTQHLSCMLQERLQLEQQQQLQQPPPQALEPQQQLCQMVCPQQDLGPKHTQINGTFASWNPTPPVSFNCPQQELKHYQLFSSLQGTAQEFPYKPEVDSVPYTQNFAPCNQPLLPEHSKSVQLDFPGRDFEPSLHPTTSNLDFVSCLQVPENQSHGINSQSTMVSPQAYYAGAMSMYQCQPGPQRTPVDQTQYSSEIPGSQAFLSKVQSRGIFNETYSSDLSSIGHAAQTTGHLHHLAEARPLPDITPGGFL
Experimental: P450 CYP1A1 Luciferase Assay
AHR binds to Dioxin Responsive Elements (DRE) upstream of genes that it activates. One measure of AHR activity is P450 CYP1A1 protein levels determined by measuring CYP1A1 enzyme activity using a luminogenic CYP1A1 luciferin-based substrate. Luciferase activity will reflect CYP1A1 activity resulting from activation of AHR in the cells.
Murine Hepa1-6 or Hepa-1c1c7 or other murine cell line, human HepG2 or other human cell line are plated in media (96-well, 384-well or other plates) and incubated overnight at 37 C in a CO2 incubator.
as §1, with “lysed and incubated with a CYP1A1 luciferase-based substrate (e.g. Luciferin-CEE)” for “lysed”, “3, 6, or 12 hours of another time point. Determination” for “determination”, “CYP1A1 enzyme activity” for “the AHR activation. Luciferase”, “P450 Glo CYP1A1 detection reagent” for “Luciferase kit”, “provide” for “provide the luciferin substrate”

Row | SMILES | EC50 (AHR [1]) | EC50 (AHR [2])
1 | C[N+](C)(CO)CCNC(=O)N(c1cccc(C(F)(F)F)c1)c1nc(-c2cccc(C#N)c2)cs1 [I-16] | < 10 nM | 100 to 1000 nM
2 | O=[N+]([O-])c1ccccc1-c1csc(Nc2cccc(C(F)(F)F)c2)n1 [I-49] | > 1000 nM | > 1000 nM
3 | FC(F)(F)c1cccc(Nc2ncc(-c3cccc(Cl)c3)o2)c1 [I-59] | < 10 nM | > 1000 nM
4 | C[N+](C)(C)CCCC(=O)N(c1cccc(C(F)(F)F)c1)c1nc(-c2cccc(Cl)c2)cs1 [I-29] | 10 to 100 nM | 100 to 1000 nM
5 | O=[N+]([O-])c1cncc(-c2csc(Nc3cccc(C(F)(F)F)c3)n2)c1 [I-7] | < 10 nM | 100 to 1000 nM
6 | C[N+](C)(C)CCNC(=O)Nc1cccc(-c2csc(Nc3cccc(C(F)(F)F)c3)n2)c1 [I-47] | > 1000 nM | > 1000 nM
7 | FC(F)(F)c1cccc(Nc2nc(-c3ccccc3Cl)cs2)c1 [I-19] | < 10 nM | > 1000 nM
8 | FC(F)(F)c1cccc(Nc2nc(-c3ccc(Cl)c(Cl)c3)cs2)c1 [I-12] | < 10 nM | > 1000 nM
9 | FC(F)(F)c1cccc(Nc2cc(-c3cccc(Cl)c3)cs2)c1 [I-60] | 10 to 100 nM | > 1000 nM
10 | FC(F)(F)c1cccc(Nc2nc(-c3ccc4cc[nH]c4c3)cs2)c1 [I-23] | < 10 nM | > 1000 nM
11 | Clc1cccc(-c2csc(Nc3ccccc3)n2)c1 [Compound P-7] | < 10 nM | > 1000 nM
12 | CN(C)C(=O)c1cccc(-c2csc(Nc3cccc(C(F)(F)F)c3)n2)c1 [I-50] | > 1000 nM | > 1000 nM
13 | C[N+](C)(CCO)CCNC(=O)N(c1cccc(C(F)(F)F)c1)c1nc(-c2cccc(Cl)c2)cs1 [I-3] | < 10 nM | 100 to 1000 nM
14 | [O-][n+]1cccc(-c2csc(Nc3cccc(C(F)(F)F)c3)n2)c1 [I-9] | < 10 nM | 10 to 100 nM
15 | NC(=O)c1cncc(-c2csc(Nc3cccc(C(F)(F)F)c3)n2)c1 [I-17] | < 10 nM | 100 to 1000 nM
16 | Clc1cccc(-c2csc(Nc3cccnc3)n2)c1 [Compound P-12] | 10 to 100 nM | > 1000 nM
17 | C[N+](C)(C)CCCC(=O)Nc1cccc(-c2csc(Nc3cccc(C(F)(F)F)c3)n2)c1 [I-40] | 100 to 1000 nM | > 1000 nM
18 | Cc1c(-c2csc(Nc3cccc(C(F)(F)F)c3)n2)cccc1[N+](=O)[O-] [I-15] | < 10 nM | > 1000 nM
19 | FC(F)(F)c1cncc(Nc2nc(-c3cccc(Cl)c3)cs2)c1 [I-5] | < 10 nM | > 1000 nM
20 | FC(F)(F)c1cccc(Nc2cc(-c3cccc(Cl)c3)cs2)c1 [I-61] | 100 to 1000 nM | > 1000 nM
21 | C[N+](C)(C)CCCNC(=O)N(c1cccc(C(F)(F)F)c1)c1nc(-c2cccc(Cl)c2)cs1 [I-24] | 10 to 100 nM | > 1000 nM

More lines, now with the values ahead:

Row | EC50 (AHR [1]) | EC50 (AHR [2]) | SMILES
22 | 10 to 100 nM | 100 to 1000 nM | CN(C)c1cccc(-c2csc(Nc3cccc(C(F)(F)F)c3)n2)c1 [I-30]
23 | 100 to 1000 nM | > 1000 nM | N=C(N)c1cccc(-c2csc(Nc3cccc(C(F)(F)F)c3)n2)c1 [I-44]
24 | < 10 nM | 10 to 100 nM | O=[N+]([O-])c1cccc(-c2csc(Nc3cccc(C(F)(F)F)c3)n2)c1 [Compound P-1]
25 | 100 to 1000 nM | > 1000 nM | O=C(O)c1cccc(-c2csc(Nc3cccc(C(F)(F)F)c3)n2)c1 [I-33]
26 | < 10 nM | > 1000 nM | FC(F)(F)Oc1cccc(Nc2nc(-c3cccc(Cl)c3)cs2)c1 [I-13]
27 | < 10 nM | 10 to 100 nM | N#Cc1cccc(-c2csc(Nc3cccc(C(F)(F)F)c3)n2)c1 [I-14]
28 | < 10 nM | > 1000 nM | Oc1cccc(-c2csc(Nc3cccc(C(F)(F)F)c3)n2)c1 [I-18]
29 | 100 to 1000 nM | > 1000 nM | FC(F)(F)Oc1cccc(-c2csc(Nc3cccc(C(F)(F)F)c3)n2)c1 [I-36]
30 | < 10 nM | 100 to 1000 nM | FC(F)(F)c1cccc(Nc2nc(-c3cccc(Br)c3)cs2)c1 [Compound P-4]
31 | 10 to 100 nM | > 1000 nM | FC(F)(F)c1cccc(-c2csc(Nc3cccc(Cl)c3)n2)c1 [I-32]
